From paper PMC8904554, “Discovery of antimicrobials by massively parallelized growth assays (Me^x)” (Scientific Reports, 2022)
Where two headings read alike, the source gives them in different places. Ends that are not written are not given here.

Columns and labels:
E. coli TOP10 = assay: microbe, parasite or virus in culture; assay type: cell-based, Escherichia coli; settings: for MIC [µM] 25%MHB: 25% (diluted) Mueller-Hinton Broth; for MIC [µM] 25%MHB / MIC [µM] 100%MHB: 5 × 10^5 cells ml^−1, twofold dilutions, 18 h, 37 °C, no shaking, OD read-out, MIC = < 5% of OD of growth control, mean, n = 3; for MIC [µM] 100%MHB: 100% Mueller-Hinton Broth; for MIC: Escherichia coli, TOP10, read-out: MIC of ampicillin (control) against E. coli TOP10, control
Protocol: On the same day at which MIC assays were executed, purified peptides were thawed and the concentration was determined by HPLC as described before. […] The cultures were then supplemented with 20% glycerol, aliquoted, and frozen at − 80 °C. […] Then the peptides were added by the liquid handling system in twofold dilutions using minimum of 100 µg ml^−1 as the highest concentration. MICs were determined as broth microdilution assay in 384-well flat bottom polypropylene plates (Falcon 96-Well Flat-Bottom Microplate) adapted from the protocol of Wiegand et al.[43]. The plates were sealed airtight and incubated for 18 h without shaking at 37 °C before reading the OD using a Tecan Infinite 200 PRO plate reader. […] MIC experiments were performed at least in triplicate.

human erythrocytes = assay: Hemolysis assay using chemically synthesized peptides; assay type: cell-based; settings: for hemolytic activity, in words: MIC/16 to 16 × MIC; for Hemolysis at 16MIC: peptide at 16 × MIC; for Hemolysis at 16MIC / Hemolysis at MIC: human erythrocytes 1:50 in DPBS, 1 h, 37 °C, absorbance 540 nm, relative to full lysis with […] Triton-X100, n = 4; for Hemolysis at MIC: peptide at MIC; for Hemolysis at 16MIC: relative to full lysis with 2.5% Triton-X100
Protocol: Two samples of human blood were obtained from a blood bank (Blutspendezentrum SRK at the University Hospital Basel). The samples were pooled and erythrocytes were isolated by repeated centrifugation at 500×g for 10 min, removal of the blood plasma and resuspending the remaining cells in an equal volume of DPBS. Following last resuspension, erythrocytes were diluted 1:50 in DPBS. […] To each well of the dilution plate, 100 μl of the red blood cells suspension was added. The plate was incubated for 1 h at 37 °C. […] The absorbance was measured at 540 nm using an Infinite M1000 PRO plate reader (Tecan) and corrected by the measurements from the untreated wells. The lysis of each peptide concentration was expressed relative to the lysis control (set as 100% lysis). […]

[1] = test system: Pseudomonas aeruginosa ATCC 47085; assay type: cell-based; settings: chemically synthesized peptide, mean, n = 3
Protocol: (§1) On the same day at which MIC assays were executed, purified peptides were thawed and the concentration was determined by HPLC as described before. E. coli TOP10 cells were grown in Mueller Hinton Broth (MHB) or diluted MHB (25% of the original strength) overnight to stationary phase. Diluted MHB has been frequently used to assay antimicrobial peptides. The cultures were then supplemented with 20% glycerol, aliquoted, and frozen at − 80 °C. […] Then the peptides were added by the liquid handling system in twofold dilutions using minimum of 100 µg ml^−1 as the highest concentration. MICs were determined as broth microdilution assay in 384-well flat bottom polypropylene plates (Falcon 96-Well Flat-Bottom Microplate) adapted from the protocol of Wiegand et al.[43]. The plates were sealed airtight and incubated for 18 h without shaking at 37 °C before reading the OD using a Tecan Infinite 200 PRO plate reader. […] MIC experiments were performed at least in triplicate.

[2] = test system: Klebsiella pneumonia ATCC 13883; assay type: cell-based; settings: chemically synthesized peptide, mean, n = 3
Protocol: as §1

E. coli ATCC 25922 = assay type: cell-based; settings: chemically synthesized peptide, mean, n = 3
Protocol: as §1

[3] = test system: Staphylococcus aureus ATCC 29213; assay type: cell-based; settings: chemically synthesized peptide, mean, n = 3
Protocol: as §1

[4] = test system: Enterococcus faecalis ATCC 29212; assay type: cell-based; settings: chemically synthesized peptide, mean, n = 3
Protocol: as §1

bacteria = test system: bacteria; parameters: method as in earlier work; settings: ref supplement references 1-15 (Table S1); cited from earlier work
E.coli = test system: E.coli; parameters: method as in earlier work; settings: ref supplement references 1-15 (Table S1); cited from earlier work
[5] = Precipitation observed in the membrane damage assay; assay type: physicochemical; settings: 100% MHB, printed as higher than 4xMIC (16 µM)
Protocol: The bacterial strain suspension was furthermore supplemented with a final concentration of 1 µg ml^−1 propidium iodide just before pipetting the assay. […] The fractions of PI-positive and GFP-positive were determined with the same gate for all populations using the FlowJo V10 software (BD Biosciences). The extracellular membrane integrity assay was performed in biological duplicates analyzing at least 10,000 cells in each experiment.

GKFSGFAKILKSIAKFFKGVGKVRKGFKEASDLDKNQ [Oxyopinin 2b 9690 APD]
MIC [µM] 25%MHB (E. coli TOP10): 0.5 µM | MIC [µM] 100%MHB (E. coli TOP10): 0.5 µM | hemolytic activity, in words (human erythrocytes): displayed hemolytic activity at higher concentrations | Hemolysis at 16MIC (human erythrocytes): 63.4% | Hemolysis at MIC (human erythrocytes): 0.7%

CC[C@H](C)[C@H](NC(=O)[C@H](Cc1c[nH]c2ccccc12)NC(=O)[C@H](CCCCN)NC(=O)[C@@H](NC(=O)[C@H](CC(C)C)NC(=O)[C@H](CC(=O)O)NC(=O)CNC(=O)[C@@H](NC(=O)[C@@H](NC(=O)[C@H](CO)NC(=O)[C@@H](NC(=O)[C@@H](NC(=O)[C@H](CC(=O)O)NC(=O)[C@H](C)NC(=O)[C@H](C)NC(=O)[C@@H](N)CCSC)[C@@H](C)CC)[C@@H](C)CC)[C@@H](C)O)[C@@H](C)CC)C(C)C)C(=O)N[C@H](C(=O)N[C@@H](CC(=O)O)C(=O)N[C@H](C(=O)N[C@H](C(=O)N[C@@H](CC(N)=O)C(=O)N[C@@H](CCCCN)C(=O)N[C@@H](Cc1ccccc1)C(=O)N[C@@H](CCCCN)C(=O)O)C(C)C)[C@@H](C)O)[C@@H](C)CC [Delta lysin I 3458 NCBI]
MIC [µM] 25%MHB (E. coli TOP10): > 60 µM | MIC [µM] 100%MHB (E. coli TOP10): > 60 µM

KRFKKFFKKLKKSVKKRAKKFFKKPRVIGVSIPF [BF-CATH 9639 APD]
MIC [µM] 25%MHB (E. coli TOP10): 1 µM | MIC [µM] 100%MHB (E. coli TOP10): 1 µM | Hemolysis at 16MIC (human erythrocytes): 4.8% | Hemolysis at MIC (human erythrocytes): 2.1%

LKDKVKSMGEKLKQYIQTWKAKF [Latarcin 4a 5147 APD]
MIC [µM] 25%MHB (E. coli TOP10): 5 µM | MIC [µM] 100%MHB (E. coli TOP10): 8 µM | Hemolysis at 16MIC (human erythrocytes): 2.8% | Hemolysis at MIC (human erythrocytes): 0.2%

VSKIKKYLKYKDRI [P-10 8942 APD]
MIC [µM] 25%MHB (E. coli TOP10): 13 µM | MIC [µM] 100%MHB (E. coli TOP10): > 60 µM | Hemolysis at 16MIC (human erythrocytes): 2.2% | Hemolysis at MIC (human erythrocytes): 0.5%

TALKGAAKELASTYQH [Maximin 3 5468 NCBI]
MIC [µM] 25%MHB (E. coli TOP10): > 60 µM | MIC [µM] 100%MHB (E. coli TOP10): > 60 µM

GFKDWIKGAAKKLIKTVASSIANE [Ascaphin-6 9286 APD]
MIC [µM] 25%MHB (E. coli TOP10): 1 µM | MIC [µM] 100%MHB (E. coli TOP10): 0.8 µM | Hemolysis at 16MIC (human erythrocytes): 1.4% | Hemolysis at MIC (human erythrocytes): 0%

GWFKKAWRKVKHAGRRVLDTAKGVGRHYLNNWLNRYR [HFIAP-1 4545 NCBI]
MIC [µM] 25%MHB (E. coli TOP10): 0.5 µM | MIC [µM] 100%MHB (E. coli TOP10): 0.5 µM | hemolytic activity, in words (human erythrocytes): displayed hemolytic activity at higher concentrations | Hemolysis at 16MIC (human erythrocytes): 18.9% | Hemolysis at MIC (human erythrocytes): 4.1% | MIC [µm] in MHB [1]: 0.7 µM | MIC [µm] in MHB [2]: 0.4 µM | MIC [µm] in MHB (E. coli ATCC 25922): 0.7 µM | MIC [µm] in MHB [3]: 1.4 µM | MIC [µm] in MHB [4]: 5.6 µM

AIAKLVAKFGWPIVKKYYKQIMQFIGEGWAINKIIEWIKK [Enterocin RJ-11 3780 NCBI]
MIC [µM] 25%MHB (E. coli TOP10): 1 µM | MIC [µM] 100%MHB (E. coli TOP10): 0.5 µM | hemolysis at the MIC compared to the Triton-X100 control (toxicity towards human erythrocytes) (human erythrocytes): > 5% | Hemolysis at 16MIC (human erythrocytes): 103.3% | Hemolysis at MIC (human erythrocytes): 22.7%

VDKGGYLPRPTPPRPVYR [Pyrrhocoricin 7122 NCBI]
MIC [µM] 25%MHB (E. coli TOP10): 8 µM | MIC [µM] 100%MHB (E. coli TOP10): 20 µM | Hemolysis at 16MIC (human erythrocytes): 2.3% | Hemolysis at MIC (human erythrocytes): 1.1%

Pyrrhocoricin PARENT: PARENT peptide on the APD, a ribosomal inhibitor
Reported antibacterial mechanism of action of parent (bacteria): Translation inhibition | Previously reported activity against E.coli of parent (E.coli): active

Melittin: highly membrane damaging peptide used as a control [reference compound]
concentration above which the peptide started to precipitate [5]: > 16 µM | hemolysis at the MIC compared to the Triton-X100 control (toxicity towards human erythrocytes) (human erythrocytes): > 5%

VKLIQIRIWIQYVTVLQMFSMKTKQ [Meucin-25 11598 APD]
MIC [µM] 25%MHB (E. coli TOP10): > 60 µM | MIC [µM] 100%MHB (E. coli TOP10): > 60 µM

CC1(C)S[C@@H]2[C@H](NC(=O)[C@H](N)c3ccccc3)C(=O)N2[C@H]1C(=O)O [ampicillin, reference compound]
MIC (E. coli TOP10; 25% MHB): 17 µM | MIC (E. coli TOP10; 100% MHB): 34 µM
